Data published in patent US10407409B2, “6-(5-hydroxy-1H-pyrazol-1-yl)nicotinamide inhibitors of PHD” (Takeda Pharmaceutical Company Limited, priority 2013, dated 2019).

How the values were obtained:
[1] = molecular target: PHD2 enzyme (residues 181-417) (Homo sapiens (Human), UniProt Q9GZT9); assay: Inhibition of PHD enzyme (LC/MS peptide hydroxylation assay); format: biochemical; details: PHD2 (residues 181-417) 5 nM, 60 min pre-incubation, -log(IC50), IC50 molar; for IC50: read-out: PHD Inhibition (pIC50) (converted)
Experimental: Example A Inhibition of PHD Enzyme
The IC50 values for the PHD2 enzyme (residues 181-417) were determined by mixing increasing amounts of inhibitor with a fixed amount of enzyme (5 nM, final concentration) and Biotin labeled peptide (Biotin-Asp-Leu-Glu-Met-Leu-Ala-Pro-Tyr-Ile-Pro-Met-Asp-Asp-Asp-Phe-Gln-Leu, 1 uM final concentration) and 2-Oxyglutarate (2 uM final concentration) in 50 mM HEPES, 50 mM KCl, 0.5 mM TCEP, 2 uM FeCl2, 0.1 mg/ml BSA, at pH 7.3. The reaction was conducted by pre-incubating the enzyme in the presence of inhibitor for 60 min at room temperature. The activity of the free enzyme was measured by adding the peptide, the 2-Oxoglutarate (see above for final concentrations), and Ascorbic Acid (1 mM final concentration). The enzymatic activity was quenched after 60 min by adding an excess of a tight binding inhibitor to the assay mixture. The amount of product released was measured by using a LC/MS system (Agilent HPLC with Applied Biosystems API3000 Mass Spectrometer). Data were analyzed using the classical isotherm equation for the determination of IC50 values and are pIC50, i.e., −log(IC50), where IC50 is molar concentration and are reported as pIC50, i.e., −log(IC50), where IC50 is molar concentration.

[2] = test system: HIF1a protein in H9c2 rat cardiomyocytes; assay: Cell-based HIF-alpha stabilization assay (inhibition of PHD in cells); details: 24 hrs compound incubation, HIF1a protein by ELISA; for EC50: Rattus norvegicus, H9c2, 24 h, read-out: Inhibition of PHD in cells (pEC50) (converted)
Experimental: Example B Inhibition of PHD in Cells
PHD Inhibition is Determined Using (Secondary Assay)
Cell-Based HIF-Alpha Stabilization Assay:
H9c2 rat cardiomyocytes (ATCC) were seeded in 96-well tissue culture microplates and cultured for 24 hours prior to addition of compounds (11 point range of serial dilutions) or dimethylsulfoxide vehicle. After 24 hrs of compound incubation, whole cell extracts were prepared by lysing cells in cell extraction buffer containing protease and phosphatase inhibitors (Meso-Scale Discovery). HIF1a protein content was assessed by ELISA (Meso-Scale Discovery) and expressed as a % relative to the maximum response obtained from the positive control, desferrioxamine (Sigma-Aldrich). Compound EC50s were obtained by curve-fitting using XLfit4 MicroSoft Excel curve-fitting software. Compound EC50pos were obtained using XLfit4 to calculate the compound concentration that results in 50% of the desferrioxamine maximum response.

Sequence of PHD2 enzyme (residues 181-417) (Q9GZT9 181-417): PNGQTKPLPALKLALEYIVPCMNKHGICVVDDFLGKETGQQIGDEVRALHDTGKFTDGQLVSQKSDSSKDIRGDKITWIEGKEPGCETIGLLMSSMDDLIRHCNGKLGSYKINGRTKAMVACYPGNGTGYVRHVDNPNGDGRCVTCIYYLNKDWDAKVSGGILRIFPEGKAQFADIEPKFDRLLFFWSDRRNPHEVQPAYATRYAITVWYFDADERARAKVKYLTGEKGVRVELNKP

Compound	IC50 [1] [nM]	PHD Inhibition (pIC50) [1]	EC50 [2] [nM]	Inhibition of PHD in cells (pEC50) [2]
Cc1cc(C#N)ccc1-c1cnn(-c2ccc(C(=O)N3CCN4CCCC4C3)cn2)c1O (racemic) [Example 288, (+/−)-4-(5-hydroxy-1-(5-(octahydropyrrolo[1,2-a]pyrazine-2-carbonyl)pyridin-2-yl)-1H-pyrazol-4-yl)-3-methylbenzonitrile]	3.31	–	575	–
CCN(C)CC1CCN(C(=O)c2ccc(-n3ncc(-c4ccc(C#N)cc4C)c3O)nc2)C1 (racemic) [Example 295, (+/−)-4-(1-(5-(3-((ethyl(methyl)amino)methyl)pyrrolidine-1-carbonyl)pyridin-2-yl)-5-hydroxy-1H-pyrazol-4-yl)-3-methylbenzonitrile]	14.1	–	339	–
CC(NC(=O)c1ccc(-n2ncc(-c3ccc(C#N)cc3)c2O)nc1)C1CC1 (stereo in doubt) [Example 260, (S)-6-(4-(4-cyanophenyl)-5-hydroxy-1H-pyrazol-1-yl)-N-(1-cyclopropylethyl)nicotinamide]	–	7.17	–	6.23
Cc1cc(C#N)ccc1-c1cnn(-c2ccc(C(=O)N3CCCC(N(C)C4CC4)C3)cn2)c1O (stereo in doubt) [Example 386, (S)-4-(1-(5-(3-(cyclopropyl(methyl)amino)piperidine-1-carbonyl)pyridin-2-yl)-5-hydroxy-1H-pyrazol-4-yl)-3-methylbenzonitrile]	–	8.23	–	6.15
COc1cc(-c2cnn(-c3ccc(C(=O)NCc4ccccc4)cn3)c2O)ccn1 [Example 2, N-benzyl-6-(5-hydroxy-4-(2-methoxypyridin-4-yl)-1H-pyrazol-1-yl)nicotinamide]	–	7.03	1260	–
COc1cc(-c2cnn(-c3ccc(C(=O)NCCOC(C)C)cn3)c2O)ccn1 [Example 7, 6-(5-hydroxy-4-(2-methoxypyridin-4-yl)-1H-pyrazol-1-yl)-N-(2-isopropoxyethyl)nicotinamide]	–	7.03	1000	–
CCOCCCNC(=O)c1ccc(-n2ncc(-c3ccnc(OC)c3)c2O)nc1 [Example 12, N-(3-ethoxypropyl)-6-(5-hydroxy-4-(2-methoxypyridin-4-yl)-1H-pyrazol-1-yl)nicotinamide]	–	7.44	661	–
CCCN1CCC(NC(=O)c2ccc(-n3ncc(-c4ccnc(OC)c4)c3O)nc2)CC1 [Example 24, 6-(5-hydroxy-4-(2-methoxypyridin-4-yl)-1H-pyrazol-1-yl)-N-(1-propylpiperidin-4-yl)nicotinamide]	–	7.04	10700	–
C[C@@H](NC(=O)c1ccc(-n2ncc(-c3ccc(C#N)cc3)c2O)nc1)C1CC1 [Example 88, (R)-6-(4-(4-cyanophenyl)-5-hydroxy-1H-pyrazol-1-yl)-N-(1-cyclopropylethyl)nicotinamide]	–	–	–	5.50
COCC1(NC(=O)c2ccc(-n3ncc(-c4ccc(C#N)cc4C)c3O)nc2)CC1 [Example 118A, 6-(4-(4-cyano-2-methylphenyl)-5-hydroxy-1H-pyrazol-1-yl)-N-(1-(methoxymethyl)cyclopropyl)nicotinamide]	–	–	79.4	–
COCCNC(=O)c1cnc(-n2ncc(-c3ccc(C#N)cc3)c2O)cc1C [Example 276, 6-(4-(4-cyanophenyl)-5-hydroxy-1H-pyrazol-1-yl)-N-(2-methoxyethyl)-4-methylnicotinamide]	–	–	3630	–
CCN1CCC(CN(C)C(=O)c2ccc(-n3ncc(-c4ccc(C#N)cc4)c3O)nc2)C1 (centres unmarked) [Example 366, 6-(4-(4-cyanophenyl)-5-hydroxy-1H-pyrazol-1-yl)-N-((1-ethylpyrrolidin-3-yl)methyl)-N-methylnicotinamide]	–	–	3800	–
CCCN1CCN(C(=O)c2ccc(-n3ncc(-c4ccc(C#N)cc4C)c3O)nc2)C[C@@H]1C [Example 374, (S)-4-(5-hydroxy-1-(5-(3-methyl-4-propylpiperazine-1-carbonyl)pyridin-2-yl)-1H-pyrazol-4-yl)-3-methylbenzonitrile]	–	–	100	–
Cc1cc(C#N)ccc1-c1cnn(-c2ccc(C(=O)N3CCN(C)C[C@@H]3C)cn2)c1O [Example 391, (S)-4-(1-(5-(2,4-dimethylpiperazine-1-carbonyl)pyridin-2-yl)-5-hydroxy-1H-pyrazol-4-yl)-3-methylbenzonitrile]	–	–	1550	–

Continued, in another order:

IC50 [1] [nM]	PHD Inhibition (pIC50) [1]	Compound	EC50 [2] [nM]	Inhibition of PHD in cells (pEC50) [2]
–	7.3	COCC1(NC(=O)c2ccc(-n3ncc(-c4ccnc(OC)c4)c3O)nc2)CCCC1 [Example 3, 6-(5-hydroxy-4-(2-methoxypyridin-4-yl)-1H-pyrazol-1-yl)-N-(1-(methoxymethyl)cyclopentyl)nicotinamide]	724	–
–	6.92	COc1cc(-c2cnn(-c3ccc(C(=O)NC4(C)CC4)cn3)c2O)ccn1 [Example 4, 6-(5-hydroxy-4-(2-methoxypyridin-4-yl)-1H-pyrazol-1-yl)-N-(1-methylcyclopropyl)nicotinamide]	525	–
–	7.01	COc1cc(-c2cnn(-c3ccc(C(=O)NC(C)C)cn3)c2O)ccn1 [Example 5, 6-(5-hydroxy-4-(2-methoxypyridin-4-yl)-1H-pyrazol-1-yl)-N-isopropylnicotinamide]	562	–
–	7.02	COc1cc(-c2cnn(-c3ccc(C(=O)NCC(C)C)cn3)c2O)ccn1 [Example 6, 6-(5-hydroxy-4-(2-methoxypyridin-4-yl)-1H-pyrazol-1-yl)-N-isobutylnicotinamide]	955	–
–	7.03	CCCNC(=O)c1ccc(-n2ncc(-c3ccnc(OC)c3)c2O)nc1 [Example 8, 6-(5-hydroxy-4-(2-methoxypyridin-4-yl)-1H-pyrazol-1-yl)-N-propylnicotinamide]	603	–
–	7.5	COc1cc(-c2cnn(-c3ccc(C(=O)N[C@H]4CC[C@@H](OC)CC4)cn3)c2O)ccn1 [Example 9, 6-(5-hydroxy-4-(2-methoxypyridin-4-yl)-1H-pyrazol-1-yl)-N-((1s,4s)-4-methoxycyclohexyl)nicotinamide]	525	–
–	7.09	CC[C@H](C)NC(=O)c1ccc(-n2ncc(-c3ccnc(OC)c3)c2O)nc1 [Example 10, (S)—N-(sec-butyl)-6-(5-hydroxy-4-(2-methoxypyridin-4-yl)-1H-pyrazol-1-yl)nicotinamide]	676	–
–	7.15	COc1cc(-c2cnn(-c3ccc(C(=O)NC4CCC4)cn3)c2O)ccn1 [Example 13, N-cyclobutyl-6-(5-hydroxy-4-(2-methoxypyridin-4-yl)-1H-pyrazol-1-yl)nicotinamide]	417	–
–	7.27	COCC1(CNC(=O)c2ccc(-n3ncc(-c4ccnc(OC)c4)c3O)nc2)CC1 [Example 14, 6-(5-hydroxy-4-(2-methoxypyridin-4-yl)-1H-pyrazol-1-yl)-N-((1-(methoxymethyl)cyclopropyl)methyl)nicotinamide]	871	–
–	7.21	COc1cc(-c2cnn(-c3ccc(C(=O)NC4CCOCC4)cn3)c2O)ccn1 [Example 15, 6-(5-hydroxy-4-(2-methoxypyridin-4-yl)-1H-pyrazol-1-yl)-N-(tetrahydro-2H-pyran-4-yl)nicotinamide]	646	–
–	7.38	COc1cc(-c2cnn(-c3ccc(C(=O)N[C@@H](C)C4CCOCC4)cn3)c2O)ccn1 [Example 16, (S)-6-(5-hydroxy-4-(2-methoxypyridin-4-yl)-1H-pyrazol-1-yl)-N-(1-(tetrahydro-2H-pyran-4-yl)ethyl)nicotinamide]	200	–
–	7.03	COCC(C)(C)NC(=O)c1ccc(-n2ncc(-c3ccnc(OC)c3)c2O)nc1 [Example 17, 6-(5-hydroxy-4-(2-methoxypyridin-4-yl)-1H-pyrazol-1-yl)-N-(1-methoxy-2-methylpropan-2-yl)nicotinamide]	347	–
–	7.1	COc1cc(-c2cnn(-c3ccc(C(=O)NCCO)cn3)c2O)ccn1 [Example 25, 6-(5-hydroxy-4-(2-methoxypyridin-4-yl)-1H-pyrazol-1-yl)-N-(2-hydroxyethyl)nicotinamide]	4470	–
97.7	–	COc1cc(-c2cnn(-c3ccc(C(=O)NCCCO)cn3)c2O)ccn1 [Example 26, 6-(5-hydroxy-4-(2-methoxypyridin-4-yl)-1H-pyrazol-1-yl)-N-(3-hydroxypropyl)nicotinamide]	3630	–
